Measured values published in patent publication US20240374692A1, “A NOVEL ACYLATED INSULIN ANALOG” (SUNSHINE LAKE PHARMA CO., LTD., priority 2021, published 2024).
pEC50: −log10 of the molar value. Like-named read-outs stand apart in the source and are kept apart here.

What was measured:
[1] = rat, in vivo, iv, 10 nmol/kg
[2] = tested on: STZ-induced type I diabetes mellitus (T1DM) C57BL/6 mice; experiment: Hypoglycemic effect, repeated administration (four times) to STZ-induced T1DM C57BL/6 mice (Example 5); format: in vivo; parameters: key to random blood glucose: random blood glucose in mmol/L, Mean±SEM; conditions: for random blood glucose: 1400 nmol/Kg S.C. four times
Procedure: SPF grade C57BL/6 mice were reared in a suitable rearing box in a barrier environment, with a rearing temperature of 20-26° C., a humidity of 40-70%, a time between day and night of 12 h/12 h, and the mice had free access to standard food and autoclaved sterilization water. After a 3-day quarantine period and a 2-day acclimation period, the mice were fasted for 12 h, and the mice were injected intraperitoneally with streptozotocin solution (STZ, 13 mg/mL, in citrate buffer) or citrate buffer at 130 mg/kg (control group). 3 Days and 7 days after administration of streptozotocin, random blood glucose and fasting blood glucose were detected, and the random blood glucose value above 25 mmol/L and fasting blood glucose value above 11.1 mmol/L were selected as T1DM model mice for follow-up experiments. On the day before administration, random blood glucose was monitored and mice were weighed. Mice were divided into 4 groups according to random blood glucose and body weight.
Subcutaneous administration (S.C.) was used to administer the corresponding vehicle or drug, once every 4-5 days, for a total of 4 administrations. During the experiment, the animals were allowed to eat and drink water freely. The random blood glucose before the first administration, and 0.25, 0.5, 1, 2, 4, 6, 8, 10, 24, 48, 72, and 96 h after administration were assessed, as well as the random blood glucose before the second, third and fourth administration, and 1, 2, 4, 6, 8, 24, 48, 72, 96 and 120 h after administration.
(§1) All raw data were entered into Excel files and expressed as Mean±SEM. Statistical analysis of data was performed using Graphpad Prism 7.0 software, one-way or two-way ANOVA comparison method, and P<0.05 was used as the criterion for significant differences.

insulin receptor B = target: T1, insulin receptor B (Homo sapiens, UniProt P06213); experiment: Insulin receptor B autophosphorylation in transfected cells (Cisbio Phospho-IR beta Tyr1150/1151 kit); format: cell-based; conditions: for Relative HI activity: relative to human insulin; for Relative 0% HSA activity: 1.5% HSA relative to 0% HSA
T1 construct: expressed in transfected cells
Procedure: The phosphorylation level of insulin receptor B was detected by Cisbio's Phospho-IR beta (Tyr1150/1151) kit method to evaluate the biological activity of insulin. The cells were seeded into a 96-well plate overnight, and after the serum in the medium was removed, 40 μl of serum-free medium was added to culture for about 4 h. Then a dilution series of insulin derivatives were prepared with blank solution (0.6% casein, 0.06 mg/mL EDTA, 1×DPBS) and incubated with cells in the 96-well plate for 5 min in a CO2 incubator (37° C., 5% CO2). The liquid in the 96-well plate was poured off, 100 µL of a mixture of lysis buffer (2% Triton X-100, 150 mM NaCl, 50 mM HEPES, pH=7) and inhibitor (Blocking Reagent in the kit) was added to lyse the cells, then the plate was shaken at 350 rpm for 30 min. Relative activity (in percent (%)) was assessed by measuring insulin receptor phosphorylation levels in the supernatant after cell lysis and fitting a curve to the data using nonlinear regression in Graphpad Prism 5 software. Related assays were also used, in which the blank solution also contained 1.5% HSA to simulate physiological conditions. Changes in the phosphorylation levels of the insulin-activated insulin receptors of the invention were detected as an indirect reflection of the albumin binding activity.

[3] = mouse, in vivo, sc, 10 nmol/kg
[4] = rat, in vivo, sc, 10 nmol/kg
normal C57BL/6 mice = experiment: Hypoglycemic effect, single subcutaneous administration to normal C57BL/6 mice; format: in vivo; parameters: blood glucose: unit not given here; conditions: for blood glucose / effective blood glucose control time / time after administration at which blood glucose reached the lowest level / time after administration at which blood glucose returned to normal: Degludec 200 nmol/Kg, others 1400 nmol/Kg; for blood glucose: Mean ± SEM, n = 6; for blood glucose compared with the control group: 1 h after single S.C. administration
Procedure: SPF grade C57BL/6 mice were reared in a suitable rearing box in a barrier environment, with a rearing temperature of 20-26° C., a humidity of 40-70%, a time between day and night of 12 h/12 h, and the mice had free access to standard food and autoclaved sterilization water. After a 3-day quarantine period and a 2-day acclimation period, random blood glucose was measured and mice were weighed. Mice were divided into 6 groups according to random blood glucose and body weight.
Single subcutaneous administration (S.C.) was used to administer the corresponding vehicle or drug. The control group was administered the vehicle PBS without fasting during the whole process, and the animals were allowed to eat and drink freely. Random blood glucose values of C57 mice were measured before administration and at 0.25, 0.5, 1, 2, 4, 6, 8, 10, 24, 48, 54, 72 and 96 hours after administration.
as §1

[5] = 0 h (before administration), single S.C.

T1 sequence (P06213 28-758 limits assumed): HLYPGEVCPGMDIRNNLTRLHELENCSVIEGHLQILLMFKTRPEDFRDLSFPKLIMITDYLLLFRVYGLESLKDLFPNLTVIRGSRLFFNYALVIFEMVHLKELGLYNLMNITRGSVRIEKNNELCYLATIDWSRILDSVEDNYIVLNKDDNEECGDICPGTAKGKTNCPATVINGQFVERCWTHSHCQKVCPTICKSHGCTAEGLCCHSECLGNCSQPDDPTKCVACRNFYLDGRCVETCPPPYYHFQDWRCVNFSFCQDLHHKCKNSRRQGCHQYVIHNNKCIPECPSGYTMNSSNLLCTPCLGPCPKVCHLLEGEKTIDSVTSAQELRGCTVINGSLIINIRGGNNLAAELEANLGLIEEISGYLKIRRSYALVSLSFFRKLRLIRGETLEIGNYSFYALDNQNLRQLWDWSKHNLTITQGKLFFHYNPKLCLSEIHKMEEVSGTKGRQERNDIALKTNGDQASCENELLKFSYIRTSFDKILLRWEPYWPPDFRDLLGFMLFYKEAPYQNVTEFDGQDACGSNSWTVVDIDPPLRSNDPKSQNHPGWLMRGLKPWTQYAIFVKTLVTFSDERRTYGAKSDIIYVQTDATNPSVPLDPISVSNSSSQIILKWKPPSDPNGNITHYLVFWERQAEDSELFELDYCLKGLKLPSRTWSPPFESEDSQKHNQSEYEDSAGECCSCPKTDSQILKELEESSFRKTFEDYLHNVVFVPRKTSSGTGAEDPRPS
T1 sequence (P06213 763-1382 partner limits assumed): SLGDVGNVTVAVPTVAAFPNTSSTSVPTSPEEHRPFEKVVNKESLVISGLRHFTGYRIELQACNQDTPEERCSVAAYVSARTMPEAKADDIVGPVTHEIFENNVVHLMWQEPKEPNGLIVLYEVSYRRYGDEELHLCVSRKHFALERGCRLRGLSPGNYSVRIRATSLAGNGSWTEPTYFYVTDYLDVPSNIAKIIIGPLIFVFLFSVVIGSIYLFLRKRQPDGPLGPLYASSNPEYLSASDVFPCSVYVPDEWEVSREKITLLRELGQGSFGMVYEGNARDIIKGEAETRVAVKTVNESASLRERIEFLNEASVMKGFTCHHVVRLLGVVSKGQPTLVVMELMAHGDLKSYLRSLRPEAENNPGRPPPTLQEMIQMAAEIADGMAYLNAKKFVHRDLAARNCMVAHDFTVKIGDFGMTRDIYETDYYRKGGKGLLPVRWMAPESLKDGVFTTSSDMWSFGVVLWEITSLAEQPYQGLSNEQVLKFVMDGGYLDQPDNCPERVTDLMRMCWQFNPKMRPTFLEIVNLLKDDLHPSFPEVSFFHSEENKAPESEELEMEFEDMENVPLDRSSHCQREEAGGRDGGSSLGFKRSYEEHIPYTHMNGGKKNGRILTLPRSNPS

## A14E, B16E, B25H, B29K (N^ε-eicosanedioyl-gGlu-2xOEG), DesB30 human insulin analog [Insulin-a1, reference compound]
[1]
  AUClast: 7550 ng·h/mL
  T1/2: 15.3 ± 4.8 h
[2]; 1400 nmol/Kg S.C., Insulin-a1 each administration, Insulin-a3 first and second administrations
  time after administration at which blood glucose reached the lowest level: 24 h
[2]; 1400 nmol/Kg S.C., after each administration
  time after administration at which blood glucose reached the normal level: 72 h
[2]; Day 0 (1st administration)
  random blood glucose: 33.3 ± 0.1
[2]; Day 1
  random blood glucose: 22.5 ± 9.6
[2]; Day 4 (2nd administration)
  random blood glucose: 31.1 ± 2.3
[2]; Day 5
  random blood glucose: 15.6 ± 6.6
[2]; Day 9 (3rd administration)
  random blood glucose: 28.4 ± 4.9
[2]; Day 10
  random blood glucose: 12.2 ± 7.9
[2]; Day 14 (4th administration)
  random blood glucose: 28.4 ± 5.9
[2]; Day 18
  random blood glucose: 26.2 ± 5.7
[2]; repeated administration, C57BL6 mice modeled by STZ
  time the effective glucose control effect can be maintained: 3 days/time
Insulin receptor B; 0% HSA
  pEC50: 6.64
  Relative HI activity: 0.54%
Insulin receptor B; 1.5% HSA
  pEC50: 5.30
  Relative HI activity: 0.05%
Insulin receptor B
  Relative 0% HSA activity: 4.58%
[3]
  AUClast: 10000 ng·h/mL
  T1/2: 14.3 h
[4]
  AUClast: 10300 ng·h/mL
  MRTINF_obs: 34.1 h
  T1/2: 21 h
Normal C57BL/6 mice; [5]
  blood glucose: 7.8 ± 1.1
Normal C57BL/6 mice; 0.25 h after single S.C.
  blood glucose: 8.8 ± 1.4
Normal C57BL/6 mice; 0.5 h after single S.C.
  blood glucose: 6.6 ± 0.7
Normal C57BL/6 mice
  blood glucose compared with the control group: decreased significantly
Normal C57BL/6 mice; 1 h after single S.C.
  blood glucose: 5.6 ± 0.7
Normal C57BL/6 mice; 2 h after single S.C.
  blood glucose: 4.4 ± 0.7
Normal C57BL/6 mice; 4 h after single S.C.
  blood glucose: 3.6 ± 0.7
Normal C57BL/6 mice; 6 h after single S.C.
  blood glucose: 3.8 ± 0.4
Normal C57BL/6 mice; 8 h after single S.C.
  blood glucose: 3.6 ± 0.7
Normal C57BL/6 mice; 10 h after single S.C.
  blood glucose: 3.4 ± 0.7
Normal C57BL/6 mice; 24 h after single S.C.
  blood glucose: 2.9 ± 0.7
Normal C57BL/6 mice; 48 h after single S.C.
  blood glucose: 4.9 ± 1.5
Normal C57BL/6 mice; 72 h after single S.C.
  blood glucose: 7.3 ± 1.3
Normal C57BL/6 mice; 96 h after single S.C.
  blood glucose: 7.8 ± 0.6
Normal C57BL/6 mice; single S.C.
  effective blood glucose control time: 72 h
  time after administration at which blood glucose reached the lowest level: 24 h
  time after administration at which blood glucose returned to normal: 48 h

## insulin degludec [reference compound]
Insulin receptor B; 0% HSA
  pEC50: 8.34
  Relative HI activity: 27.07%
Insulin receptor B; 1.5% HSA
  pEC50: 7.69
  Relative HI activity: 12.59%
Insulin receptor B
  Relative 0% HSA activity: 22.10%
Normal C57BL/6 mice; [5]
  blood glucose: 7.8 ± 0.8
Normal C57BL/6 mice; 0.25 h after single S.C.
  blood glucose: 6.5 ± 1.1
Normal C57BL/6 mice; 0.5 h after single S.C.
  blood glucose: 5.0 ± 0.4
Normal C57BL/6 mice
  blood glucose compared with the control group: decreased significantly
Normal C57BL/6 mice; 1 h after single S.C.
  blood glucose: 4.7 ± 1.1
Normal C57BL/6 mice; 2 h after single S.C.
  blood glucose: 4.4 ± 1.3
Normal C57BL/6 mice; 4 h after single S.C.
  blood glucose: 5.4 ± 0.6
Normal C57BL/6 mice; 6 h after single S.C.
  blood glucose: 5.4 ± 1.2
Normal C57BL/6 mice; 8 h after single S.C.
  blood glucose: 5.8 ± 0.8
Normal C57BL/6 mice; 10 h after single S.C.
  blood glucose: 5.7 ± 0.9
Normal C57BL/6 mice; 24 h after single S.C.
  blood glucose: 8.3 ± 0.9
Normal C57BL/6 mice; 48 h after single S.C.
  blood glucose: 8.0 ± 0.3
Normal C57BL/6 mice; 72 h after single S.C.
  blood glucose: 8.0 ± 0.8
Normal C57BL/6 mice; 96 h after single S.C.
  blood glucose: 7.9 ± 0.3
Normal C57BL/6 mice; single S.C.
  effective blood glucose control time: 24 h
  time after administration at which blood glucose reached the lowest level: 2 h
  time after administration at which blood glucose returned to normal: 24 h

## A14E, B16E, B25H, B29K(N(ε)-COOH(CH2)16CO-L-Lys-CO(CH2)2CO—(OEG)2), desB30 human insulin analog [Insulin-a4]
Normal C57BL/6 mice; [5]
  blood glucose: 8.0 ± 1.3
Normal C57BL/6 mice; 0.25 h after single S.C.
  blood glucose: 9.0 ± 1.9
Normal C57BL/6 mice; 0.5 h after single S.C.
  blood glucose: 6.2 ± 1.6
Normal C57BL/6 mice
  blood glucose compared with the control group: decreased significantly
Normal C57BL/6 mice; 1 h after single S.C.
  blood glucose: 5.0 ± 0.5
Normal C57BL/6 mice; 2 h after single S.C.
  blood glucose: 4.8 ± 0.5
Normal C57BL/6 mice; 4 h after single S.C.
  blood glucose: 3.9 ± 0.5
Normal C57BL/6 mice; 6 h after single S.C.
  blood glucose: 3.8 ± 1.1
Normal C57BL/6 mice; 8 h after single S.C.
  blood glucose: 3.2 ± 0.6
Normal C57BL/6 mice; 10 h after single S.C.
  blood glucose: 3.0 ± 0.6
Normal C57BL/6 mice; 24 h after single S.C.
  blood glucose: 5.3 ± 1.8
Normal C57BL/6 mice; 48 h after single S.C.
  blood glucose: 8.7 ± 0.9
Normal C57BL/6 mice; 72 h after single S.C.
  blood glucose: 8.0 ± 0.9
Normal C57BL/6 mice; 96 h after single S.C.
  blood glucose: 7.9 ± 1.1
Normal C57BL/6 mice; single S.C.
  effective blood glucose control time: 48 h
  time after administration at which blood glucose reached the lowest level: 10 h
  time after administration at which blood glucose returned to normal: 48 h
